Target: human mGluR2 (Homo sapiens (Human), UniProt Q14416)
Assay: [35S]GTPγS binding assay (Affinity to mGluR2)
Assay type: biochemical
Details: cell membrane fraction of HEK293 cells stably expressing human mGluR2; glutamic acid 10 μM
Experimental: (Preparation of Cell Membrane Fraction of HEK293 Cells Stably Expressing Human Metabotropic Glutamate Receptor 2 (mGluR2))
HEK293 cells stably expressing human mGluR2 and human glutamate transporter SLC1A3 were cultured in a Dulbecco's modified Eagle's medium with 10% fetal bovine serum (50 units/mL of penicillin, 50 μg/mL of streptomycin, 60 μg/mL of geneticin, 400 μg/mL of hygromycin B and 2 mM of glutamine) at 37° C. under 5% CO2. Confluent cell cultures were washed twice with PBS(−), and then scraped off with a cell scraper, and subjected to centrifugal separation at 4° C. and 1500 rpm for 5 minutes for collecting cells. The centrifuged sediment (cell pellet) was homogenized in a 20 mM HEPES buffer containing 10 mM EDTA (pH 7.4) by using sonicator and centrifuged at 4° C. and 1500×g for 30 minutes. The supernatant (soluble fraction) was subjected to the centrifugal separation at 4° C. and 40,000×g for 30 minutes, and thus, insoluble fraction was obtained. After additional centrifugally washing the obtained fraction with 20 mM HEPES buffer containing 10 mM EDTA (pH 7.4), the pellet was centrifugally suspended with a 20 mM HEPES buffer containing 0.1 mM EDTA, and the cell membrane fraction was obtained by the centrifugal separation at 4° C. and 40,000×g for 30 minutes. The thus obtained cell membrane fraction was suspended in a 20 mM HEPES buffer containing 0.1 mM EDTA in a protein concentration of 3 mg/mL, which was stored at −80° C.
([^35S]GTPγS Binding Assay)
The frozen cell membrane fraction prepared as described above was thawed before use, and the resultant was diluted with a buffer for a binding assay (final concentrations: 20 mM HEPES, 100 mM NaCl, 1 mM MgCl2, 3 μM GDP, 300 μg/mL saponin, 0.1% BSA). The compound of each example was added to a cell membrane fraction containing 1.8 to 3 μg/assay of membrane protein on a plate, followed by incubation at room temperature for 30 minutes. Thereafter, with glutamic acid (in a final concentration of 10 μM) added thereto, incubation was performed at room temperature for 15 minutes, and thereafter, [^35S]GTPγS (in a final concentration of 0.8 kBq) and 588 μg WGA-SPA beads were added thereto, followed by incubation at room temperature for 1 hour. After the incubation, the plate was subjected to the centrifugal separation at 2,500 rpm and room temperature, and then, membrane cell binding radioactivity was measured with a top count.
A [^35S]GTPγS binding amount obtained by performing the above-described reaction in the absence of glutamic acid was defined as nonspecific binding, and a difference from a [^35S]GTPγS binding amount obtained in the presence of glutamic acid was defined as specific binding. On the basis of ratios of inhibiting the specific binding at various concentrations of the compounds of the respective examples, inhibition curves were obtained. Concentrations of the compounds of the respective examples at which the specific [^35S]GTPγS binding amount was suppressed by 50% (IC50 values) were calculated on the basis of the inhibition curves and shown in Tables 8 and 9.

human mGluR2, sequence (Q14416 19-872): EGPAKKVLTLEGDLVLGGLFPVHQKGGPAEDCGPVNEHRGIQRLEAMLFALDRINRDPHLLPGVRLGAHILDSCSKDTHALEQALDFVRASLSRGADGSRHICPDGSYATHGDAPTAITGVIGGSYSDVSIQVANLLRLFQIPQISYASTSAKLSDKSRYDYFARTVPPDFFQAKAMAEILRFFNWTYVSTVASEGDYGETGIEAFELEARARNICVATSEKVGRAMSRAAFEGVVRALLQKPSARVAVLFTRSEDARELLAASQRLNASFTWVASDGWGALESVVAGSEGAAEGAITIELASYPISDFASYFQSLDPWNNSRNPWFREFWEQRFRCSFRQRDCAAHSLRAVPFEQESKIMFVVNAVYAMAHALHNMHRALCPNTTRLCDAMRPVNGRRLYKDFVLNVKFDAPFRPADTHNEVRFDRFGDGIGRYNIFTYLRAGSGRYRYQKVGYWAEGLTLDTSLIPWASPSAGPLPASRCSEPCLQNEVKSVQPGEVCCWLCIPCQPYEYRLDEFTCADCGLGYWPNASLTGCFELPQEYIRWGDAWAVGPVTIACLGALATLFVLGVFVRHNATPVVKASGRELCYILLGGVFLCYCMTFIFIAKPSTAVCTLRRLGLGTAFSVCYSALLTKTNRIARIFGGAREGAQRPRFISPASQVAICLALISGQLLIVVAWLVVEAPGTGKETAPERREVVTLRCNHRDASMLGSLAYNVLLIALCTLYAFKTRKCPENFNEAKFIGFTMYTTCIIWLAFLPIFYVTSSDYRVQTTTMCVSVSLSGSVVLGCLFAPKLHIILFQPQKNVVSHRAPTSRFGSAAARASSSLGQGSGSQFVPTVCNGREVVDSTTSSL

| IC50 | Compound |
| --- | --- |
| 22.7 nM | CCOc1cc(-c2nc(-c3cc(C)nc(C)c3)c3n2CCOCC3)ccc1Cl [Example 102] |
| 10.9 nM | Cc1cc(-c2nc(-c3ccc(OC(F)(F)F)c(C)c3)n3c2CCOCC3)ccn1 [Example 118] |
| 73.9 nM | Cc1cc(-c2nc(-c3ccc(F)c(OC(F)(F)F)c3)n3c2CCOCC3)cc(C)n1 [Example 45] |
| 36.9 nM | Cc1cc(-c2nc(-c3ccc(OC4CC4)c(Cl)c3)n3c2CCOCC3)cc(C)n1 [Example 135] |
| 3.2 nM | COc1cc(-c2nc(-c3cc(C)nc(C)c3)c3n2C[C@@H](C)OCC3)ccc1OC(F)(F)F [Example 25, (R)-1-(2,6-dimethylpyridin-4-yl)-3-(3-methoxy-4-(trifluoromethoxy)phenyl)-6-methyl-5,6,8,9-tetrahydroimidazo[1,5-d][1,4]oxazepine] |
| 20.9 nM | Cc1cc(-c2nc(-c3ccc(OC(F)(F)F)cc3)n3c2CCO[C@H](CF)C3)cc(C)n1 [Example 69] |
| 2.7 nM | COc1cc(-c2nc(-c3cc(C)nc(C)c3)c3n2C[C@@H](CF)OCC3)ccc1OC(F)(F)F [Example 16, (S)-1-(2,6-dimethylpyridin-4-yl)-6-(fluoromethyl)-3-(3-methoxy-4-(trifluoromethoxy)phenyl)-5,6,8,9-tetrahydroimidazo[1,5-d][1,4]oxazepine] |
| 13.2 nM | Cc1cc(-c2nc(-c3ccc(Cl)c(OC(F)(F)F)c3)n3c2CCO[C@H](C)C3)cc(C)n1 [Example 68] |
| 3.5 nM | Cc1cc(-c2nc(-c3ccc(OC(F)F)c(C)c3)n3c2CCO[C@H](CF)C3)cc(C)n1 [Example 27, (S)-3-(4-(difluoromethoxy)-3-methylphenyl)-1-(2,6-dimethylpyridin-4-yl)-6-(fluoromethyl)-5,6,8,9-tetrahydroimidazo[1,5-d][1,4]oxazepine] |
| 64.2 nM | Cc1cc(-c2nc(-c3ccc(Cl)c(C)c3)n3c2CCOCC3)cc(C)n1 [Example 110] |
| 90 nM | Cc1cc(-c2nc(-c3ccc(OC(F)(F)F)cc3)n3c2CCOCC3)ccn1 [Example 43] |
| 6.3 nM | COc1cc(-c2nc(-c3cc(C)nc(C(F)F)c3)c3n2C[C@@H](C)OCC3)ccc1C [Example 80] |
| 37.7 nM | Cc1cc(-c2nc(-c3cccc(Cl)c3)n3c2CCO[C@H](C)C3)cc(C)n1 [Example 62] |
| 31.2 nM | Cc1cc(-c2nc(-c3cccc(OC(F)(F)F)c3)n3c2CCO[C@H](C)C3)cc(C)n1 [Example 64] |
| 4.4 nM | Cc1cc(-c2nc(-c3ccc(OC(F)(F)F)c(Cl)c3)n3c2CCO[C@H](C)C3)cc(C)n1 [Example 133] |
| 18.9 nM | COc1cc(-c2nc(-c3cc(C)nc(C)c3)c3n2C[C@@H](CF)OCC3)ccc1C [Example 71] |
| 7.5 nM | Cc1cc(-c2nc(-c3ccc(OC(F)F)c(Cl)c3)n3c2CCO[C@H](C)C3)ccn1 [Example 21, (R)-3-(3-chloro-4-(difluoromethoxy)phenyl)-6-methyl-1-(2-methylpyridin-4-yl)-5,6,8,9-tetrahydroimidazo[1,5-d][1,4]oxazepine] |
| 4.1 nM | COc1cc(-c2nc(-c3ccnc(C)c3)c3n2C[C@@H](CF)OCC3)ccc1C(F)(F)F [Example 41, (S)-6-(fluoromethyl)-3-(3-methoxy-4-(trifluoromethyl)phenyl)-1-(2-methylpyridin-4-yl)-5,6,8,9-tetrahydroimidazo[1,5-d][1,4]oxazepine] |
| 29.7 nM | C[C@@H]1Cn2c(-c3ccc(OC(F)(F)F)cc3)nc(-c3ccnc(CF)c3)c2CCO1 [Example 85] |
| 31.8 nM | Cc1cc(-c2nc(-c3ccc(OC(F)F)c(F)c3)n3c2CCOCC3)cc(C)n1 [Example 119] |
| 7.4 nM | Cc1cc(-c2nc(-c3ccc(OC(F)F)c(C)c3)n3c2CCO[C@H](C)C3)ccn1 [Example 15, (R)-3-(4-(difluoromethoxy)-3-methylphenyl)-6-methyl-1-(2-methylpyridin-4-yl)-5,6,8,9-tetrahydroimidazo[1,5-d][1,4]oxazepine] |
| 95.8 nM | Cc1cc(-c2nc(-c3ccc(F)c(OCC(F)F)c3)n3c2CCOCC3)cc(C)n1 [Example 92] |
| 5.2 nM | COc1cc(-c2nc(-c3cc(C)nc(CF)c3)c3n2C[C@@H](C)OCC3)ccc1OC(F)(F)F [Example 30, (R)-1-(2-(fluoromethyl)-6-methylpyridin-4-yl)-3-(3-methoxy-4-(trifluoromethoxy)phenyl)-6-methyl-5,6,8,9-tetrahydroimidazo[1,5-d][1,4]oxazepine] |
| 2.8 nM | Cc1cc(-c2nc(-c3ccc(OC(F)F)c(Cl)c3)n3c2CCO[C@H](C)C3)cc(C)n1 [Example 32, (R)-3-(3-chloro-4-(difluoromethoxy)phenyl)-1-(2,6-dimethylpyridin-4-yl)-6-methyl-5,6,8,9-tetrahydroimidazo[1,5-d][1,4]oxazepine] |
| 28.7 nM | Cc1cc(-c2nc(-c3ccc(F)c(OCC(F)(F)F)c3)n3c2CCOCC3)cc(C)n1 [Example 93] |
| 40 nM | Cc1cc(-c2nc(-c3ccc(Cl)c(OC(F)(F)F)c3)n3c2CCOCC3)cc(C)n1 [Example 48] |
| 47.5 nM | Cc1cc(-c2nc(-c3ccc(C(F)(F)F)c(F)c3)n3c2CCO[C@H](C)C3)ccn1 [Example 139] |
| 20.5 nM | Cc1cc(-c2nc(-c3ccc(Cl)c(C)c3)n3c2CCO[C@H](C)C3)cc(C)n1 [Example 52] |
| 16.5 nM | Cc1cc(-c2nc(-c3ccc(Cl)c(C(F)F)c3)n3c2CCOCC3)cc(C)n1 [Example 125] |

Same assay, conditions: cell membrane fraction of HEK293 cells stably expressing human mGluR2; glutamic acid 10 μM; inhibition of specific [35S]GTPγS binding

| IC50 | Compound |
| --- | --- |
| 7.9 nM | CCOc1cc(-c2nc(-c3ccnc(C)c3)c3n2C[C@@H](C)OCC3)ccc1CC [Example 219] |
| 19.5 nM | Cc1cc(-c2nc(-c3ccc(F)c(OC(F)F)c3)n3c2CCO[C@H](C)C3)ccn1 [Example 185] |
| 14 nM | Cc1cc(-c2nc(-c3ccc(OC(F)(F)F)c(F)c3)n3c2CCO[C@H](CF)C3)cc(CF)n1 [Example 202] |
| 7.3 nM | COc1cc(-c2nc(-c3cc(C)nc(CO)c3)c3n2C[C@@H](CF)OCC3)ccc1C(F)(F)F [Example 156] |
| 19.2 nM | COc1ccc(-c2nc(-c3ccnc(C)c3)c3n2C[C@@H](C)OCC3)cc1OC(F)(F)F [Example 155] |
| 45.5 nM | Cc1cc(-c2nc(-c3ccc(F)c(Cl)c3)n3c2CCO[C@H](C)C3)ccn1 [Example 145] |
| 27.7 nM | Cc1cc(-c2nc(-c3ccc(OC4CC4)c(OC(F)(F)F)c3)n3c2CCOCC3)cc(C)n1 [Example 144] |
| 29.4 nM | Cc1cc(-c2nc(-c3ccc(OC(F)F)c(C)c3)n3c2CCO[C@H](C)C3)cc(CO)n1 [Example 177] |
| 5.3 nM | Cc1cc(-c2nc(-c3ccc(OC4CC4)c(Cl)c3)n3c2CCO[C@H](C)C3)cc(CF)n1 [Example 205] |
| 1.7 nM | CCOc1ccc(-c2nc(-c3cc(C)nc(C)c3)c3n2C[C@@H](CF)OCC3)cc1C [Example 243] |
| 58.1 nM | Cc1cc(-c2nc(-c3ccc(OC(F)F)c(Cl)c3)n3c2CCOCC3)cc(C)n1 [Example 215] |
| 42.2 nM | COc1ccc(-c2nc(-c3cc(C)nc(C(F)F)c3)c3n2C[C@@H](C)OCC3)cc1Cl [Example 190] |
| 19.2 nM | Cc1cc(-c2nc(-c3ccc(F)c(C(F)(F)F)c3)n3c2CCO[C@H](CF)C3)cc(C)n1 [Example 173] |
| 4 nM | Cc1cc(-c2nc(-c3ccc(OC(F)(F)F)c(C)c3)n3c2CCO[C@H](C)C3)cc(CF)n1 [Example 204] |
| 26.4 nM | Cc1cc(-c2nc(-c3ccc(F)c(C(F)(F)F)c3)n3c2CCO[C@H](C)C3)ccn1 [Example 151] |
| 6 nM | Cc1cc(-c2nc(-c3ccc(OC(F)F)c(C)c3)n3c2CCO[C@H](CF)C3)cc(CF)n1 [Example 207] |
| 38.3 nM | Cc1cc(-c2nc(-c3ccc(F)c(Cl)c3)n3c2CCO[C@H](CF)C3)ccn1 [Example 172] |
| 82 nM | Cc1cc(-c2nc(-c3ccc(C)c(OCC4CCOCC4)c3)n3c2CCO[C@H](C)C3)cc(C)n1 [Example 228] |
| 72.5 nM | Cc1cc(-c2nc(-c3ccc(Cl)c(OC(F)F)c3)n3c2CCOCC3)cc(C)n1 [Example 212] |
| 20.8 nM | Cc1cc(-c2nc(-c3ccc(OC(F)F)c(C)c3)n3c2CCO[C@H](CF)C3)cc(C(F)F)n1 [Example 188] |
| 19.3 nM | Cc1cc(-c2nc(-c3ccc(C(F)(F)F)c(C)c3)n3c2CCO[C@H](CF)C3)ccn1 [Example 187] |

Reference: patent US9458176B2, “Tetrahydroimidazo(1,5-D)[1,4]oxazepine derivative” (Eisai R&D Management Co., Ltd., priority 2013, dated 2016)
